Consider three compounds from ChEMBL document CHEMBL2010786, “Design and synthesis of benzenesulfonamide derivatives as potent anti-influenza hemagglutinin inhibitors” (ACS Med Chem Lett, 2011).

Values after ≈ are worked out from the molar mass of the structure shown.

Data set [1] can be described thus: Oral bioavailability in CD1 mouse at 10 mg/kg. It counts as ADME, organism-based. Conditions: in vivo.
The nature of data set [2]: Solubility of the compound in phosphate buffer at pH 6.5. Type of data set: physicochemical.

`CC1(C)C[C@H](O)C[C@](C)(CNc2ccc(Cl)c(S(N)(=O)=O)c2)C1` had a bioavailability in data set [1] of 70%.
For `CC1(C)C[C@H](O)C[C@](C)(CNc2cccc(S(N)(=O)=O)c2)C1` (relative stereo), in data set [1], the bioavailability is 75%. In data set [2], this compound displayed a solubility of 141 µg/mL (≈ 432 µM).
`CC1(C)C[C@H](O)C[C@](C)(CNc2cc(Cl)cc(S(N)(=O)=O)c2)C1`: the bioavailability in data set [1] was 55%.
